Data from US20080234232A1, “Methods and compositions for targeting AFAP” (priority 2007, published 2008).

Experiments:
[1] = system: AFAP-110 colocalization with cSrc and cSrc activation; experiment: Immunofluorescence: PMA-induced colocalization of AFAP-110 with cSrc and cSrc activation in mouse embryo fibroblasts; format: cell-based
Protocol: FIG. 1: LY294002 blocks PMA-induced colocalization between AFAP-110 and cSrc, and subsequent cSrc activation. A) SYF cells transiently co-expressing GFP-AFAP-110 and cSrc were untreated (panels a-d), treated with 100 nM PMA for 15 minutes (panels e-h), or treated with PMA and either 6 μM bisindolylmaleimide (panels i-I), 10 μM LY294002 (panels m-p) or 50 nM Wortmannin (panels q-t). Fixed cells were immunolabeled with avian specific cSrc antibody, EC10 (1:500), and phospho-Src-family (Tyr416) (1:250) as described in the methods section. Secondary antibodies used were Atexa 546 anti-mouse for EC10 and Alexa 647 anti-rabbit for phospho-Src-family (Tyr416). A merged image was generated to determine colocalization between AFAP-110 and cSrc. Bars represent 20 μM.
D) Knockout MEFs (p85−/−) were transfected with GFP-AFAP-110 and cSrc. Fixed cells were immunolabeled with EC10 (1:500) and phospho-Src-family (Tyr416) (1:250) as described in the methods section. Secondary antibodies used were Alexa 546 anti-mouse for EC10 and Alexa 647 anti-rabbit for phospho-Src-family (Tyr416). Cells treated with 100 riM PMA for 15 minutes (panels e-h). Images were merged to determine colocalization of cSrc and GFP-AFAP-110. Bars represent 20 μm. Mouse embryo fibroblast cells that express the p85α isoform of the PI3K regulatory subunit (p85α+/+) were transfected with GFP-AFAP-110 and cSrc. Fixed cells were immunolabeled with EC10 (1:500) and phospho-Src-family (Tyr416) (1:250) as described in the methods section. Secondary antibodies used were Alexa 546 anti-mouse for EC10 and Alexa 647 anti-rabbit for phospho-Src-family (Tyr416). Images were merged to determine colocalization of cSrc and GFP-AFAP-110. Bars represent 20 μm.
SYF, SYF/cSrc, p85α+/+ and p85−/− cells were cultured in standard culture media. Transient transfections of SYF, SYF/cSrc, p85α+/+ cells for immunofluorescence were carried out using LipofectAMINE™ Reagent (Invitrogen) as per manufacturer's protocol. Briefly, Approximately 5.0-8.0×10^4 cells per well were transfected at 50-70% confluent on coverstips with 2-4 μg of plasmid DNA and incubated for 3-4 hours. Thirty-six hours after transfection, cells were serum starved for 12 hours, treated, and subsequently fixed and permeablized as previously described (Qian, Y. et. al., 1998). Cells were treated with a PKC activator, 100 nM PMA for 5 or 15 minutes or in combination with the following pretreatments; a PKC inhibitor, 6 μM bisindolylmaleimide [I] for six hours; or PI3K inhibitor, 10 μM LY294002 for six hours; 50 nM Wortmannin for 30 minutes; and/or a Src family inhibitor, 5 μM PP1 for six hours. For actin labeling, a 1:500 dilution of TRITC-phalloidin was used as labeled in the figures. Primary antibody concentrations used were diluted in 5% Bovine Serum Albumin (BSA) dissolved in 1× phosphate-buffered saline (PBS): EC10 mAb-1:500; Phospho-Src Family (Y416) pAb-1:250; Anti-PI-3,4,5-P3 mAb-1:100; Anti-AFAP-110 (F1)pAb-1:1000; Anti-cSrc pAb-1:500; Anti-flag-1:1000. All fluorescent secondary and phalloidin antibodies were diluted 1:200 in 5% BSA, and are labeled according to figure legends. Cells were washed and mounted on slides with Fluoromount-G (Fisher). A Zeiss LSM 510 confocal microscope was used to scan images of about 1 μM in thickness. To prevent cross-contamination between the different fluorochromes, each channel was imaged sequentially using the multitrack recording module before merging the images. For all figures, representative cells are shown (>100 cells examined per image shown).
We utilized SYF cell lines as a model system, mouse embryo fibroblasts engineered to contain null mutations in the c-src,fyn, and c-yes genes (Klinghoffer, R. A. et. al., 1999). The cells were transiently co-transfected with constructs that encode cSrc and GFP-tagged AFAP-110, as previously described (Gatesman, A. et. al., 2004). […]

PI3K = molecular target: T1, PI3K (Mus musculus, UniProt P42337); experiment: In vitro PI3K kinase assay on anti-p110α immunoprecipitates of treated SYF/cSrc cells; format: cell-based; details: SYF/cSrc cells serum-starved, 100 nM PMA for 5 or 15 minutes
T1 construct: a PI3K kinase activity assay performed using anti-p1100α immunoprecipitates; endogenous in cells; host or cells: SYF/cSrc mouse embryo fibroblasts (lysate, anti-p110α immunoprecipitate)
Protocol: FIG. 3: PMA treatment results in an increase in PI3K activation, in vitro. SYF/cSrc cells were cultured under serum-free conditions for 24 hours. Cells were unstimulated or stimulated with 10% serum (positive control), 100 nM PMA for 5 or 15 minutes. Cells were then lysed in kinase assay buffer and a PI3K kinase activity assay performed using anti-p1100α immunoprecipitates to measure PMA-induced incorporation of [^32p] into phosphoinositide substrates.
PI3K activity was determined using the In vitro PI3K kinase assay as previously described (Jiang, B. H. et. al., 1998). Cells were serum-starved 24 hours. The media was changed and cells were then treated with either 10% fetal calf serum or 100 nM PMA for 5 or 15 minutes alone or in conjunction with 6 μM bisindolylmaleimide [i] or 10 μM LY294002 for six hours as a negative control. Upon completion of the incubation, the cells were lysed in cold kinase lysis buffer [150 mM NaCl, 100 mM Tris pH 8.0, 1% Triton X-100, 5 mM EDTA, 10 mM NaF, plus inhibitors (1 mg/ml leuptin, 1 mg/ml peptatin, 0.5 M sodium vanadate, 1 mg/ml aprotinin, and 1M DTT)]. Five hundred micrograms (500 μg) of protein was incubated with p110α antibody overnight at 4° C. Forty microliters (40 μl) of protein A/G PLUS agarose beads (50% slurry) was added and incubated for an additional two hours. […]

[2] = p85−/− cells, 100 nM PMA 15 min

T1 sequence (P42337 whole entry): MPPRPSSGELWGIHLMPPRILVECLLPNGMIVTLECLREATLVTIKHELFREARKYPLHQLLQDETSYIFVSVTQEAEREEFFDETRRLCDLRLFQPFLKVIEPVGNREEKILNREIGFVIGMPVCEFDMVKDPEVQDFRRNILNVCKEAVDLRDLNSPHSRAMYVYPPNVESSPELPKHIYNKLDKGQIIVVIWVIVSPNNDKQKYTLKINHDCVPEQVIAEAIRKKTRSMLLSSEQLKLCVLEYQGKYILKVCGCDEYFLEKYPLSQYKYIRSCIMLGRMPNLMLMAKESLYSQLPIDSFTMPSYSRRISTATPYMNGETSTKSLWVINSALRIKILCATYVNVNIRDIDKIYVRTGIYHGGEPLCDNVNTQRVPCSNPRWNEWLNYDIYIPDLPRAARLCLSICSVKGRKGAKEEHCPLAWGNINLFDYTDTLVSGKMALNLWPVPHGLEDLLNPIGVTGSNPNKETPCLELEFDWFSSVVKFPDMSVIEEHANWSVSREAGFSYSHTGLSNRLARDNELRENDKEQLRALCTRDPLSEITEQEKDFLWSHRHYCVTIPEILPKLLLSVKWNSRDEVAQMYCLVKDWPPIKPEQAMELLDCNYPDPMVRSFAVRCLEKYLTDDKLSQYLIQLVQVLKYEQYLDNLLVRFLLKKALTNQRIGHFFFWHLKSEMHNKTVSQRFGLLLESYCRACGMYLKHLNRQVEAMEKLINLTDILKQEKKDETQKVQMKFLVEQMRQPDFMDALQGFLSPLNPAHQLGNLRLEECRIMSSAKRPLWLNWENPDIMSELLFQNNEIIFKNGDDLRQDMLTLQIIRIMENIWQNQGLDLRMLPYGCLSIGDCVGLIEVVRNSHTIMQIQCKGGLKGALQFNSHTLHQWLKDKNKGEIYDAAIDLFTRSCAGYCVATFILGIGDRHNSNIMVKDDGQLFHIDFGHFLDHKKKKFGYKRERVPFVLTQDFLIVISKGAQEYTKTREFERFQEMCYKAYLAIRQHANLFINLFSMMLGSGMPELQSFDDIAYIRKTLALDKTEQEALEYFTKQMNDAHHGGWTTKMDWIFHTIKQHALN
T1 sequence (P26450 whole entry partner): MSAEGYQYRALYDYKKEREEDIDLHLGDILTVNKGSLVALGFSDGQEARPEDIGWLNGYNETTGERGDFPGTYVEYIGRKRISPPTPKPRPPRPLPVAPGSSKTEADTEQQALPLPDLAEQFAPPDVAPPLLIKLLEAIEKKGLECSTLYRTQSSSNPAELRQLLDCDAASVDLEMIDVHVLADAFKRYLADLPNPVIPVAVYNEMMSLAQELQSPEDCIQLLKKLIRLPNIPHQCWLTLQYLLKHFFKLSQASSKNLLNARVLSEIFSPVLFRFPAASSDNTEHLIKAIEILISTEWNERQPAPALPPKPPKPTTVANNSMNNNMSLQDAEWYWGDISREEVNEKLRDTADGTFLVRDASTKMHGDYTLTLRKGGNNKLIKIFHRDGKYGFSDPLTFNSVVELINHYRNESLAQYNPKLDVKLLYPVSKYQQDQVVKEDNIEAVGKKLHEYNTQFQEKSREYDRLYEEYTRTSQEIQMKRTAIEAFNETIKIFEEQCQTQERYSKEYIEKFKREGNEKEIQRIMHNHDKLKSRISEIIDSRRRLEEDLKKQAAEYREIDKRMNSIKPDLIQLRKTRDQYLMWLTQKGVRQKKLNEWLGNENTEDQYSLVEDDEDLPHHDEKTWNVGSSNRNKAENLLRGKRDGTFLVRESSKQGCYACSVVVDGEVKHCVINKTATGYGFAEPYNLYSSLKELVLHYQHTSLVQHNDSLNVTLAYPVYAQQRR

CCCCCCCCCCCCCC(=O)O[C@@H]1[C@@H](C)[C@@]2(O)[C@@H](C=C(CO)C[C@]3(O)C(=O)C(C)=C[C@@H]23)[C@@H]2C(C)(C)[C@]12OC(C)=O [PMA, Phorbol 12-myristate 13-acetate]
activation of cSrc (anti-phospho-cSrc Y416 immunoreactivity) on PMA treatment ([1]; SYF cells, 100 nM PMA 15 min): evidence for activation of cSrc
colocalization of GFP-AFAP-110 with cSrc on PMA treatment ([1]; SYF cells, 100 nM PMA 15 min): caused GFP-AFAP-110 to colocalize with cSrc
cSrc activation on PMA treatment ([1]; p85α+/+ cells): enables PMA to induce
colocalization of AFAP-110 with cSrc on PMA treatment ([1]; p85α+/+ cells): enables PMA to induce
cSrc activation on PMA treatment [1, 2]: no evidence for cSrc activation
colocalization of AFAP-110 with cSrc on PMA treatment [1, 2]: failed to induce significant colocalization
PI3K activity (incorporation of 32P into phosphoinositide substrate) (PI3K): significant increase
